Article PMC6145916, “Interaction of mitochondrial fission factor with dynamin related protein 1 governs physiological mitochondrial function in vivo” (Scientific Reports, 2018)
Where no end group is shown, it is not given here.

System: Huntington's disease patient-derived fibroblasts
Assay: Mitochondrial ROS (MitoSox) in HD patient-derived fibroblasts
Type: cell-based, human
Conditions: indicated peptide concentration daily for three days, normalized to healthy fibroblast control; 3 independent experiments
Experimental: (DNM1L) and MFF genes. a.
DNM1L and MFF throughout evolution. NCBI PSI -BLAST was performed for the human […]
corresponding to the human gene. c.
DNM1L and 7/7 isoforms of MFF. d. […]
affect mitochondrial fusion measured by photoconvertible den dra2 protein. Mito -dendra2 […]
The initial image following […]
species production (MitoSox). d.
Data are of 3 independent experiments with the whiskers calculated by the Turkey method. e. […]
production in an Mff -dependent manner. Mitochondrial reactive oxygen species production […]
treatment in each cell line. […]
determined by an unpaired, two -tailed t test). g. […]
control (no peptide treatment). Data are mean ± s.e. from 3 independent experiments.
Human neuroblastoma SH-SY5Y cells purchased from ATCC were cultured in a 50/50 mixture of […]
using SH-SY5Y cells were carried out in the same growth medium with the exception of using […]
Wild-type and MFF knockout mouse embryonic fibroblast (MEF) cells were generously provided by Professor David Chan. […]
an NCBI protein blast of the P259 sequence ([…]) was performed across the human genome database and the top 75 gene query hits were recorded.7 The orthologs of each available gene were obtained from the Ensembl database.8 Of the resulting 75 human gene hits, 37 had […]
calculated as the average MitoSox signal per cell. […]

**Q.** “YGRKKRRQRRRGSGIIQLPEIVVV-NH2 (C-terminus assumed) [P259]” was tested. Which “mitochondrial ROS” value did it give?
**A.** Its value is “further increased mitochondrial ROS”.
